According to US11731959B2, “Troxacitabine synthesis and crystal form thereof” (BEIJING HEBABIZ BIOTECHNOLOGY CO., LTD., priority 2015, dated 2023):

Columns and labels:
Format in all cases: physicochemical
[1] = Crystal form conversion on storage or heating (XRPD/DSC)
Excerpt: The innovator of this invention set up 103 pleiomorphic screening tests using 7 methods, and obtained 7 crystal forms therefrom, i.e., crystal forms A, B, C, E, F, J and K. Among those, crystal forms B, F and J are instable at common temperature while crystal form K is a crystal form of troxacitabine acetic acid solvate or acetate, crystal form C is a crystal form of troxacitabine monohydrate, and crystal forms A and E are the crystal forms of troxacitabine itself (anhydrous substance).
Transfer 201.3 mg of the final product obtained in the embodiment 1 to a 5-ml flasket, add 0.8 mL of water to dissolve and volatilize in a fume hood with the top open for 3 days. Transfer into a vacuum drying oven (<−100 KPa) and volatilize with the top open for 1 day. The resulted crystal form is called crystal form C and its superficial characteristics are obtained using x-ray powder diffraction (XRPD), thermogravimetric analysis (TGA) and differential scanning calorimetry (DSC).
Transfer 199.8 mg of the final product obtained in the embodiment 1 to a 5-ml flasket, add 4.0 mL of methanol:acetone=1:9 (v/v), and mix the suspension for 3 days. Centrifugate for 3 min at a rate of 10000 rpm, precipitate and vacuum dry for 1 h. The resulted crystal form is called crystal form E and its superficial characteristics are obtained using x-ray powder diffraction (XRPD) and differential scanning calorimetry (DSC). […] (the first endothermic peak at a starting temperature of 68.3° C. is the dehydration peak of crystal form C), the second endothermic peak disappears from DSC spectrum when heated to 160° C., that is, the second endothermic peak at a starting temperature of 146.0° C. is the crystal form conversion peak of crystal form A from crystal form E.)

[2] = Hygroscopicity study by DVS method at 25° C.; settings: for humidity at which the crystal form begins to absorb water / water absorbed at 90% RH: 25° C.; for crystal form after water absorption / DVS (XRPD): XRPD before and after DVS
Experimental: The hygroscopicity of crystal forms A, C and E is evaluated by DVS method at 25° C. Crystal form A begins to absorb water at 70% RH and absorbs 8.4% of water at 90% RH. […] Crystal form E begins to absorb water at 80% RH and absorbs 8.5% of water at 90% RH. […] Therefore, crystal form C is selected for further stability study.

[3] = Stability study of crystal form C (XRPD, TGA, DSC, HPLC)
Experimental: Crystal form C is evaluated for its physical-chemical stability when placed at 80° C. for 24 h (with the top closed) as well as at 40° C./75% RH and 25° C./60% RH for 1 week (with the top open). The chemical and physical stability of the samples are tested by XRPD, TGA, DSC and HPLC.

[4] = 1 week, 25° C./60% RH, top open
[5] = 1 week, 40° C./75% RH, top open

crystal form change on storage ([1]; 1-month storage)	humidity at which the crystal form begins to absorb water ([2]; DVS) [% RH]	water absorbed at 90% RH ([2]; DVS) [%]	crystal form after water absorption / DVS (XRPD) [2]	TGA weight loss (heated to 100° C.) ([3]; 0 h, NA)	HPLC purity ([3]; 0 h, NA) [area %]	TGA weight loss (heated to 100° C.) [3, 4]	HPLC purity [3, 4] [area %]	TGA weight loss (heated to 100° C.) [3, 5]	HPLC purity [3, 5] [area %]	physical stability ([3]; 40° C./75% RH and 25° C./60% RH, 1 week)	chemical stability ([3]; 80° C. 24 h, 40° C./75% RH and 25° C./60% RH 1 week, chemical impurity analysis)	TGA weight loss (heated to 100° C.) ([3]; 24 h, 80° C., top closed)	HPLC purity ([3]; 24 h, 80° C., top closed) [area %]	hygroscopicity ([2]; DVS, 25° C./80% RH) [%]	relative stability among crystal forms ([2]; room temperature and room humidity)	SMILES	crystal form change on heating ([1]; heated to 100° C., XRPD)	crystal form change on heating ([1]; heated to 160° C., XRPD)	crystal form change on storage ([1]; stored for 3 months in air, XRPD)
partially convert into crystal form C	70	8.4	begins to convert into crystal form C	–	–	–	–	–	–	–	–	–	–	–	–	Nc1ccn(C2CO[C@H](CO)O2)c(=O)n1 (some centres unmarked) [crystal form A]	–	–	–
–	–	–	remain the same in crystal form	8.0	100.0	8.2	100.0	7.9	100.0	physically stable	chemically stable	0.4	100.0	0.14	most stable crystal form	Nc1ccn(C2CO[C@H](CO)O2)c(=O)n1 (some centres unmarked) [crystal form C]	conversion of crystal form C into crystal form A	–	–
–	80	8.5	begins to convert into crystal form C	–	–	–	–	–	–	–	–	–	–	–	–	Nc1ccn(C2CO[C@H](CO)O2)c(=O)n1 (some centres unmarked) [crystal form E]	–	conversion of crystal form E into crystal form A	has a tendency to convert into crystal form C
